Measurements taken from publication PMC3566858 (Beilstein Journal of Organic Chemistry, 2013).
Marks after values point to notes of the source that are not given here.

Experiments:
cruzain = cruzain (Trypanosoma cruzi, UniProt P25779); assay: biochemical; conditions: for IC50: kinact/Ki, read-out: cruzain activity (n.a. = not active)
TcCYP51 = TcCYP51 (Trypanosoma cruzi, UniProt Q7Z1V1); assay: biochemical; conditions: UV-vis binding assay; lower limit of KD ~5 nM; read-out: TcCYP51 activity in vitro KD
[1] = tested on: T. cruzi parasites in J774 macrophage host cells; assay: Minimum trypanocidal concentration (MTC) assay; format: cell-based, Trypanosoma cruzi
[2] = target: T1, ≈35 kDa host-cell protein (cathepsin B) (Mus musculus, UniProt P10605); assay: Competitive labeling of host cell (C2C12) proteins with probe 9; format: cell-based; conditions: C2C12 cells
T1 construct: endogenous in cells; host or cells: C2C12 mouse myoblasts
Experimental: The discovery of a potential mammalian off-target of probe 9 (and presumably also of 1) was of considerable interest, so we explored this finding further. To determine if this protein was also a target of 1 and 4, we conducted competition experiments in C2C12 cells. […]
Cellular labeling assay and “click” chemistry: C2C12 cells (1.5 × 10^6 cells) were pre-treated with competitor compounds in culture media (1 mL, DMEM with 10% FBS) for 1 hour at 37 °C.
Then additional competitor compound and 9 (2 µM) were added in culture media (1 mL), and the cells were incubated for an additional hour. The cells were then pelleted, washed with phosphate-buffered saline pH 7.4 (2 × 1 mL), and lysed with 1% SDS in phosphate-buffered saline (400 µL). The denatured lysates were sonicated to reduce viscosity, centrifuged to give pellets of the insoluble material, and normalized for total protein content. The normalized lysates (22 µL, 3 mg/mL) were mixed with TAMRA azide 10 (0.5 µL, 5 mM), TCEP (0.5 µL, 50 mM, pH ~7.0), TBTA ligand in 1:4 DMSO/t-butyl alcohol (1.5 µL, 1 mM), and CuSO4 (0.5 µL, 50 mM).
Reactions were incubated at room temperature for one hour and then resolved by SDS-PAGE.
The resulting gel was scanned for fluorescence (Typhoon Imaging System, Molecular Dynamics) and coomassie stained. […]

[3] = tested on: T. cruzi parasites in C2C12 host cells; assay: High-content imaging-based screening (HCS) assay; format: cell-based; conditions: Trypanosoma cruzi; reduces parasite load in C2C12 cells by 90% relative to untreated controls; read-out: T. cruzi growth inhibition HCS EC90
[4] = tested on: TcCYP51 (ergosterol biosynthesis) in intracellular T. cruzi parasites; assay: Ergosterol biosynthesis / sterol composition of intracellular T. cruzi by GC/MS; format: cell-based, Trypanosoma cruzi; parameters: key to TcCYP51 cellular activity (Y/N): Y: Compound affects ergosterol biosynthesis at indicated concentration as determined by GC/MS analysis; cellular activity (Y/N, conc.); conditions: for effect on sterol (lipid) composition of intracellular T. cruzi: concentrations below MTC
CYP2C19 [5] = target: T2, CYP2C19 (Homo sapiens, UniProt P33261); assay: CYP reversibility study (pre-incubation with or without NADPH), 2C19; format: in vitro ADME
Experimental: (§1) CYP Inhibition and reversibility studies
(§2) Mammalian CYP inhibition values and reversibility studies were conducted by WuXi AppTech
(§3) (Tianjin, China 300457) according to standard protocols. […]

CYP1A2 = target: T3, CYP1A2 (Homo sapiens, UniProt P05177); assay: Mammalian CYP inhibition panel, 1A2; format: in vitro ADME
T3 sequence (P05177 1-516): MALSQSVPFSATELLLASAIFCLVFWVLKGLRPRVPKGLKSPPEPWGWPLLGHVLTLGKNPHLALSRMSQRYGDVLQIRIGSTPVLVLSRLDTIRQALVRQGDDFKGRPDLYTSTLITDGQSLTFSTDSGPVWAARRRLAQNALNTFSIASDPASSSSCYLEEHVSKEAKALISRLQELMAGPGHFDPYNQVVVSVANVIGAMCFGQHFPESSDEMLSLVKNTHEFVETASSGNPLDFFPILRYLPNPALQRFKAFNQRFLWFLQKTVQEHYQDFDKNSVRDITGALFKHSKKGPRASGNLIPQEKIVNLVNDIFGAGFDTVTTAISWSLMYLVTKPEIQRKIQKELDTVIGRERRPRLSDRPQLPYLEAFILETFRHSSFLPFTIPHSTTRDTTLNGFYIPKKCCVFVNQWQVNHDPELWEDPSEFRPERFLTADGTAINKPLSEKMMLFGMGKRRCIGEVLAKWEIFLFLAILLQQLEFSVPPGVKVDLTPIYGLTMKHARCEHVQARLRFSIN

CYP3A4 [6] = target: T4, CYP3A4 (Homo sapiens, UniProt P08684); assay: CYP reversibility study (pre-incubation with or without NADPH), 3A4; format: in vitro ADME
Experimental: Given the similar IC50 values for 1 and 4 against CYP3A4, we were curious to determine whether 4 is an irreversible inhibitor of this enzyme, as is the case for 1 [30].
as §1, §2, §3

CYP2C9 = CYP2C9 (Homo sapiens, UniProt P11712); assay: Mammalian CYP inhibition panel, 2C9; format: in vitro ADME
CYP2D6 = CYP2D6 (Homo sapiens, UniProt P10635); assay: Mammalian CYP inhibition panel, 2D6; format: in vitro ADME
CYP3A4 [7] = target: T4, CYP3A4; assay: Mammalian CYP inhibition panel, 3A4; format: in vitro ADME
CYP2C19 [8] = target: T2, CYP2C19; assay: Mammalian CYP inhibition panel, 2C19; format: in vitro ADME
[9] = tested on: CYP1A2, CYP2C9, CYP2C19, CYP2D6, CYP3A4 (average over the panel of mammalian CYP enzymes); assay: Mammalian CYP inhibition panel, average over panel; format: in vitro ADME; conditions: human; average of 1A2, 2C9, 2C19, 2D6, 3A4; read-out: average IC50 across the CYP panel
[10] = clears J774 host cells of parasites at day 40, following 28 days of treatment
[11] = pre-incubation at either 1 μM or 10 μM for one hour
[12] = affects ergosterol biosynthesis at 0.1 μM
[13] = pretreatment with 10 μM for one hour
[14] = affects ergosterol biosynthesis at 2.0 μM

T1 sequence (P10605 80-333 limits assumed): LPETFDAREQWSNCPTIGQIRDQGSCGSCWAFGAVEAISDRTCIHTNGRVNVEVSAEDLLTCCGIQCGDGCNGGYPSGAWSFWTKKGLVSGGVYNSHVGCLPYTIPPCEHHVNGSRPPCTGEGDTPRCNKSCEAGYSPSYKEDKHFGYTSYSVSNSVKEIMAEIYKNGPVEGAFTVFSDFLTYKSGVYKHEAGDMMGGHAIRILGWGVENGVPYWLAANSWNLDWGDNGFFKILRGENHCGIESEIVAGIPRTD
Sequence of TcCYP51 (Q7Z1V1 whole entry): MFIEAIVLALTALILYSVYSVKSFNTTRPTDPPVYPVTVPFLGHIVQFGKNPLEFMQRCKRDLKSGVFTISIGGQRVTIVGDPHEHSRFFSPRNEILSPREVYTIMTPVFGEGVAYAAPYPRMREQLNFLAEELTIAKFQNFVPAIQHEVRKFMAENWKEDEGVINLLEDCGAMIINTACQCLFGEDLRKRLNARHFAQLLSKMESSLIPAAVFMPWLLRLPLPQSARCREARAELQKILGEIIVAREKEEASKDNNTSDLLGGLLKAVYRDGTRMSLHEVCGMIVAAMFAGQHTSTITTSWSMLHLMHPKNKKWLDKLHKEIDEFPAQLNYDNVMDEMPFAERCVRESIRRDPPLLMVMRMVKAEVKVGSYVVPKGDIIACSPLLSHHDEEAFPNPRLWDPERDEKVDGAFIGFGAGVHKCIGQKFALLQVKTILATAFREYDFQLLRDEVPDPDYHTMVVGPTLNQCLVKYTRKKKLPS
T4 sequence (P08684 whole entry): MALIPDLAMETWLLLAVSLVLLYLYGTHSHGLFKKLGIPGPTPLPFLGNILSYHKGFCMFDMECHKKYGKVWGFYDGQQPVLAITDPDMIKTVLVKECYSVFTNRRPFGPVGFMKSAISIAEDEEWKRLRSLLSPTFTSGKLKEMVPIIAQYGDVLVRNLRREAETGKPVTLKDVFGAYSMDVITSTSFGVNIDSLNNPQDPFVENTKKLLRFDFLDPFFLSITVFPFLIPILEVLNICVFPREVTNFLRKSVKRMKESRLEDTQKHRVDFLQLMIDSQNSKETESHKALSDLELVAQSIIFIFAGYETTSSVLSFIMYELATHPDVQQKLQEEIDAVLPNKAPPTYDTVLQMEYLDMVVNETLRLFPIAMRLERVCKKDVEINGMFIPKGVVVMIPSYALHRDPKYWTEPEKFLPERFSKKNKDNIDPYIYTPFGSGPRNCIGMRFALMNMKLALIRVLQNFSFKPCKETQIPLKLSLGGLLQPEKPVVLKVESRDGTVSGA
T2 sequence (P33261 whole entry): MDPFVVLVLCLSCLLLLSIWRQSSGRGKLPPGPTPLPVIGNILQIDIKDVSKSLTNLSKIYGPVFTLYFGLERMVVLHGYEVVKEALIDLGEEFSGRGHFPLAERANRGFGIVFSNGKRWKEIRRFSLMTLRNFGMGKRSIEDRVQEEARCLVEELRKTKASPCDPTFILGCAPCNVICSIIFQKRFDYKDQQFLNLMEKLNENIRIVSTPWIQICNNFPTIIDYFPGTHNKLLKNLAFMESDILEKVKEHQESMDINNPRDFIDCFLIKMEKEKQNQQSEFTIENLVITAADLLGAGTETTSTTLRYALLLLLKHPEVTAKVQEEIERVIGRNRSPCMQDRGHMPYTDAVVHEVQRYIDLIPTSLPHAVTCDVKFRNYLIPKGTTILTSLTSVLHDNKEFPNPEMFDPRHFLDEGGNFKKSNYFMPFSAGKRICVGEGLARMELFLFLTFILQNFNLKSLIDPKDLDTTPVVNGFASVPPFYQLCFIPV
Sequence of cruzain (P25779 123-337 limits assumed): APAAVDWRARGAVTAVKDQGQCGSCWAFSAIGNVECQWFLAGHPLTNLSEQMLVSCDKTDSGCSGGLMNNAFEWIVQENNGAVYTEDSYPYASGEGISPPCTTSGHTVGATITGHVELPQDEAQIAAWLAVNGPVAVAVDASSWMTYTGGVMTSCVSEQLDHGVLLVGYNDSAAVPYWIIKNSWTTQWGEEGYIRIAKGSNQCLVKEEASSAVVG
Sequence of CYP2C9 (P11712 whole entry): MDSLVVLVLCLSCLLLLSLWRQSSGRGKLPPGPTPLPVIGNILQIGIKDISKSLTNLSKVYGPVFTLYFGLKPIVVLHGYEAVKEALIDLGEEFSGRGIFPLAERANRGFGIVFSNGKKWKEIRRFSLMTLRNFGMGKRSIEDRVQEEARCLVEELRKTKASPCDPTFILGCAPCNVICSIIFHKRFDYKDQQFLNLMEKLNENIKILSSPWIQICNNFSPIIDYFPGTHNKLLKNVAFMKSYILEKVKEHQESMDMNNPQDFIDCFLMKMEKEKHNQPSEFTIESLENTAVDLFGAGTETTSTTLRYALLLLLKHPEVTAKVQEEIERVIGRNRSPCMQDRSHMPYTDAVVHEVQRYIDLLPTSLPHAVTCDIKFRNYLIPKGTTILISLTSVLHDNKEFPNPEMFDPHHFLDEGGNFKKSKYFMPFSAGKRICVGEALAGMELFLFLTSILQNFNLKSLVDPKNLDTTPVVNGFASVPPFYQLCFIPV
Sequence of CYP2D6 (P10635 whole entry): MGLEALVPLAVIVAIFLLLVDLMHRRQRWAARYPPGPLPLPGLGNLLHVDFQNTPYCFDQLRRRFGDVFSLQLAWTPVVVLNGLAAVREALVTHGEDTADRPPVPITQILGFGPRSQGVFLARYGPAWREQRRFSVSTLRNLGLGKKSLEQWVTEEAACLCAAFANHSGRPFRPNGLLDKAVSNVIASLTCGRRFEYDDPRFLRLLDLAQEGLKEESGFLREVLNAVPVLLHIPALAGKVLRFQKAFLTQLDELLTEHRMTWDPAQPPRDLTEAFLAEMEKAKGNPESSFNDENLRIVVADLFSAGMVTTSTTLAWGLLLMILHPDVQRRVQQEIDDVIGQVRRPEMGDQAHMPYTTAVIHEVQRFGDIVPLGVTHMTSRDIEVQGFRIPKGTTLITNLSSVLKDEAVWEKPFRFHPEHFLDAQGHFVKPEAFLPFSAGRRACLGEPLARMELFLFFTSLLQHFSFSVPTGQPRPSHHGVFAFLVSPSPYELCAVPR

Cc1ccc(C[C@H](NC(=O)c2ccncc2)C(=O)N[C@@H](CCc2ccccc2)CCS(=O)(=O)c2ccccc2)cc1 [Compound 8]
IC50 (cruzain): > 50 µM | Kd (TcCYP51): ≤ 0.005 µM | T. cruzi growth inhibition MTC [1, 10]: 0.25 µM | times more potent than 4 in the MTC assay ([1]; relative to compound 4): 2–4 times | competition for labeling of the ≈35 kDa band by probe 9 [2, 11]: did not compete for labeling by 9 | EC90 [3]: 0.11 µM | TcCYP51 cellular activity (Y/N) [4, 12]: Y (0.1 μM) | effect on sterol (lipid) composition of intracellular T. cruzi [4]: effects very similar to those observed in posaconazole treated parasites

Cc1ccc(C[C@H](NC(=O)c2ccncc2)C(=O)N[C@H](C)c2ccccc2)cc1 [Compound 13]
IC50 (cruzain): > 50 µM | Kd (TcCYP51): 0.075 ± 0.026 µM | T. cruzi growth inhibition MTC ([1]; read at day 12 following 7 days treatment): 1^f μM | EC90 [3]: 3.9 µM

CC[C@@H]([C@H](C)O)n1ncn(-c2ccc(N3CCN(c4ccc(OC[C@@H]5CO[C@@](Cn6cncn6)(c6ccc(F)cc6F)C5)cc4)CC3)cc2)c1=O [POSA, posaconazole, reference compound]
T. cruzi growth inhibition MTC [1, 10]: 0.003 µM | EC90 [3]: 2.7 µM | TcCYP51 cellular activity (Y/N) [4, 12]: Y (0.1 μM) | effect on sterol (lipid) composition of intracellular T. cruzi [4]: increase in the relative abundance of TcCYP51 substrates lanosterol (f) and eburicol (h)

C#CCN1CCN(C(=O)N[C@@H](Cc2ccccc2)C(=O)N[C@H](/C=C/S(=O)(=O)c2ccccc2)CCc2ccccc2)CC1 [Compound 9]
kinact/KI (cruzain): 81500 M⁻¹ s⁻¹ | T. cruzi growth inhibition MTC ([1]; performed in BESM host cell rather than J774 cells): 5^e μM | EC90 [3]: 0.017 µM

Cc1ccc(C[C@H](NC(=O)c2ccccn2)C(=O)N[C@H](/C=C/S(=O)(=O)c2ccccc2)CCc2ccccc2)cc1.O=C(O)C(F)(F)F [Compound 3]
kinact/KI (cruzain): 16000 M⁻¹ s⁻¹ | Kd (TcCYP51): > 2 µM | T. cruzi growth inhibition MTC [1, 10]: 8 µM | competition for labeling of the ≈35 kDa band by probe 9 [2, 13]: successfully blocked labeling | EC90 [3]: 1.85 µM | TcCYP51 cellular activity (Y/N) [4, 14]: N (2.0 μM) | effect on sterol (lipid) composition of intracellular T. cruzi [4]: no significant change in lipid composition

O=C(Cn1ccnc1[N+](=O)[O-])NCc1ccccc1 [BNZ, benzindazole, reference compound]
T. cruzi growth inhibition MTC [1, 10]: 10 µM | EC90 [3]: 7.2 µM

CC1CCC(C(=O)N[C@H](Cc2c[nH]c3ccccc23)C(=O)Nc2ccncc2)CC1 (stereo partly shown) [Compound 5, reference compound]
T. cruzi growth inhibition MTC [1, 10]: ≤10^d μM | TcCYP51 cellular activity (Y/N) ([4]; affects ergosterol biosynthesis at 5.0 μM): Y (5.0 μM)

Cc1ccc(C[C@H](NC(=O)c2ccccn2)C(=O)N[C@@H](CCc2ccccc2)CCS(=O)(=O)c2ccccc2)cc1 [Compound 7]
IC50 (cruzain): > 50 µM | Kd (TcCYP51): > 2 µM | T. cruzi growth inhibition MTC [1, 10]: >10 µM | EC90 [3]: > 10 µM | TcCYP51 cellular activity (Y/N) [4, 12]: N (0.1 μM) | effect on sterol (lipid) composition of intracellular T. cruzi [4]: no significant change in lipid composition

Cc1ccc(C[C@H](NC(=O)c2ccncc2)C(=O)N[C@H](/C=C/S(=O)(=O)c2ccccc2)CCc2ccccc2)cc1 [Compound 4, N-[(2S)-1-[[(E,3S)-1-(benzenesulfonyl)-5-phenylpent-1-en-3-yl]amino]-3-(4-methylphenyl)-1-oxopropan-2-yl]pyridine-4-carboxamide]
mechanism of CYP2C19 inhibition (CYP2C19 [5]; NADPH-dependent shift of IC50): reversible inhibitors | IC50 (CYP2C19 [5]; pre-incubation with NADPH): 0.3 µM | IC50 (CYP2C19 [5]; pre-incubation without NADPH): 0.17 µM | kinact/KI (cruzain): 67300 M⁻¹ s⁻¹ | IC50 (CYP1A2): 22 µM | Kd (TcCYP51): ≤ 0.005 µM | mechanism of CYP3A4 inhibition (CYP3A4 [6]; NADPH-dependent shift of IC50): reversible inhibition | IC50 (CYP3A4 [6]; pre-incubation with NADPH): 0.117 µM | IC50 (CYP3A4 [6]; pre-incubation without NADPH): 0.046 µM | IC50 (CYP2C9): 5.5 µM | T. cruzi growth inhibition MTC [1, 10]: 0.6 µM | fold more potent than 1 in the MTC assay ([1]; relative to compound 1): about 10 fold | IC50 (CYP2D6): 2.7 µM | competition for labeling of the ≈35 kDa band by probe 9 [2, 13]: successfully blocked labeling | EC90 [3]: 0.1 µM | IC50 (CYP3A4 [7]): 0.8 µM | IC50 (CYP2C19 [8]): 3.4 µM | TcCYP51 cellular activity (Y/N) ([4]; affects ergosterol biosynthesis at 0.2 μM): Y (0.2 μM) | effect on sterol (lipid) composition of intracellular T. cruzi [4]: effects very similar to those observed in posaconazole treated parasites | IC50 [9]: ~7 µM

CN1CCN(C(=O)N[C@@H](Cc2ccccc2)C(=O)N[C@@H](CCc2ccccc2)CCS(=O)(=O)c2ccccc2)CC1 [Compound 6]
IC50 (cruzain): > 50 µM | Kd (TcCYP51): > 2 µM | T. cruzi growth inhibition MTC [1, 10]: >10 µM | competition for labeling of the ≈35 kDa band by probe 9 [2, 11]: did not compete for labeling by 9 | EC90 [3]: > 10 µM | TcCYP51 cellular activity (Y/N) [4, 14]: N (2.0 μM) | effect on sterol (lipid) composition of intracellular T. cruzi [4]: no significant change in lipid composition

O=C(N[C@@H](Cc1ccccc1)C(=O)N[C@H](/C=C/S(=O)(=O)c1ccccc1)CCc1ccccc1)c1ccccn1 [Compound 2]
kinact/KI (cruzain): 120000 M⁻¹ s⁻¹ | T. cruzi growth inhibition MTC [1, 10]: 10 µM

CNC(=O)[C@H](Cc1ccc(C)cc1)NC(=O)c1ccncc1 [Compound 12]
IC50 (cruzain): > 50 µM | Kd (TcCYP51): 0.62 ± 0.26 µM | T. cruzi growth inhibition MTC [1, 10]: >10 µM | antitrypanosomal effect ([1]; highest concentration examined (10 μM)): no antitrypanosomal effect | EC90 [3]: > 10 µM
